From US12616672B2, “Methods for assessing risk of cardiovascular disease and methods and compounds for use in treating or preventing cardiovascular disease” (Queen Mary University of London, priority 2017, dated 2026)

Tests used:
[1] = tested on: peripheral blood leukocytes and platelets from CVD patients; experiment: CVD patient whole blood incubated with RvD2n-3 DPA or RvD5n-3 DPA for 45 min, flow cytometry; format: cell-based, human; conditions: no PAF
Method: FIG. 8: RvD2n-3 DPA and RvD5n-3 DPA reduce leukocyte activation in peripheral blood from CVD patients. Peripheral blood from patients diagnosed with cardiovascular disease (CVD) was collected at 9:00 h. […] Expression of CD62P on (A) neutrophils (B) monocytes and CD11b on (C) neutrophils and (D) monocytes was investigated using flow cytometry and fluorescently labelled antibodies.
Whole blood was incubated with lineage-specific markers for 45 min (4° C., in DPBS containing 0.02% BSA). The following anti-human antibodies were used: VioBlue-anti-CD41, PE-Cy5-anti-CD62P, Brilliant Violet 711-anti-CD11b, APC-Cy7-anti-CD16, Alexa Fluor 647-anti-CD14. After staining, red blood cells were lysed using Whole Blood Lysing Reagent Kit, according to the manufacturer's instructions. Data was collected using a flow cytometer and analysis was conducted using appropriate software.
(§1) In select experiments platelet adhesion molecule expression was assessed. Here platelets were incubated with fluorescently labelled mouse anti-human VioBlue-anti-CD41, PE-Cy5-anti-CD62P, PerCP/Cy5.5-anti-CD63 and FITC-ant-CD42b for 30 min at 4° C. Cells were then washed and fluorescence, staining evaluated using LSRFortessa cell analyser (BD Biosciences) and analysed using FlowJo software (Tree Star Inc., V10).

[2] = tested on: platelet rich plasma; experiment: PRP incubations with RvD5n-3 DPA then PAF, platelet adhesion molecule expression by flow cytometry; format: cell-based, human; conditions: 0.1-10 nM, 15 min, then PAF 100 nM 30 min
Method: FIG. 21: RvD2n-3 DPA and RvD5n-3 DPA reduce monocyte, neutrophil and platelet activation in healthy volunteer peripheral blood. […] Cell activation and leukocyte-platelet aggregates were assessed using flow cytometry. (A,B) Images depicting platelet monocyte (A) and (B) platelet-neutrophil aggregates. Results are representative of n=3 distinct experiments. (C,D) Cumulative neutrophil (C) CD11b and (D) CD62P expression. (E,F) Monocyte (E) CD11b and (F) CD62P expression. Results are mean of n=5 per condition and expressed as percentage change from PAF incubated cells. *p<0.05 compared to PAF using Wilcoxon Signed Rank Test. (G) Platelet rich plasma was incubated with vehicle (PBS) or RvD5n-3 DPA 0.1-10 nM (15 min; 37° C.) and PAF (100 nM; 30 min; 37° C.). Adhesion molecule expression evaluated using flow cytometry. Results are mean±s.e.m. n=5 healthy volunteers. * p, 0.05 compared to Vehicle group using Friedman's test followed by Dunn's multiple comparisons test.
Peripheral blood from healthy volunteers was collected in acidified-citrate-dextrose. Blood was centrifuged at 500×g for 20 min. PRP was collected and cells incubated with RvD5n-3 DPA or vehicle (0.01% EtOH+PBS) for 15 min at 37° C. Cells were then incubated with PAF (100 nM) or Vehicle (0.01% EtOH) for 30 min at 37° C. Cells were then washed with PBS and cellular activation was assessed using flow cytometry as detailed below.
as §1

[3] = tested on: Apo E^−/− mice; experiment: Apo E−/− mice given RvD5n-3 DPA: aortic arch Oil red-O staining; format: in vivo; conditions: 100 ng/mouse i.v., alternate days, 2 weeks; vs vehicle
Method: Mice (male and female) were fed a western diet for 6 weeks from 4 weeks of age and kept of a 12 h light dark cycle. At 8 weeks of age, mice were given RvD5n-3 DPA (100 ng/mouse; i.v.) or vehicle on alternate days for a 2-week period. Mice were culled, aortic arches were collected and stained using oil-red O as in Khambata R S et al. Anti-inflammatory actions of inorganic nitrate stabilize the atherosclerotic plaque. Proc Natt Acad Sci USA. 2017; 114(4):E550-E559, the contents of which are incorporated herein by reference. Staining intensity was determined using image processing software and expressed as relative units per mm^2. The descending aorta was collected, placed in ice-cold methanol and lipid mediators identified and quantified as described above.

[4] = CVD patient whole blood, 0.1, 1, 10 nM, 45 min
[5] = CVD patient whole blood, 45 min

CC/C=C\C[C@H](O)/C=C/C=C\C/C=C\C=C\[C@@H](O)CCCCCC(=O)O [RvD5n-3 DPA, 7,17-trihydroxy-8E,10,13,15E,19Z-docosapentaenoic acid]
monocyte CD11b expression [1, 4]: significantly reduced
neutrophil CD11b expression [1, 4]: significantly reduced
platelet-monocyte aggregates [1, 4]: reduction
platelet-neutrophil aggregates [1, 4]: reduction
platelet CD62P expression [1, 5]: downregulated
platelet CD63 expression [1, 5]: downregulated
potency in reducing neutrophil-platelet and monocyte-platelet aggregates, compared ([1]; CVD patient whole blood): higher potency than RvD2n-3 DPA
PAF mediated upregulation of CD41 expression on platelets [2]: dose dependent reduction
PAF mediated upregulation of CD62P expression on platelets [2]: dose dependent reduction
PAF mediated upregulation of CD63 expression on platelets [2]: dose dependent reduction
aortic lesions (Oil red-O staining) [3]: significant reduction
